Assay results taken from patent publication US20230000849A1, “INHIBITION OF SMARCA2 FOR TREATMENT OF CANCER” (Epizyme, Inc., priority 2017, published 2023).
Entries after “also recorded” stand apart in the source; their conditions may differ.

How the values were obtained:
[1] = target: SMARCA2 (Homo sapiens, UniProt P51531); test: SMARCA2 ATPase activity inhibition by known bromodomain inhibitors (HTS ADP-Glo bioluminescent format); format: biochemical; conditions: read-out: % inh SMARCA2 at 10 nM
Chain of SMARCA2 (P51531 whole entry): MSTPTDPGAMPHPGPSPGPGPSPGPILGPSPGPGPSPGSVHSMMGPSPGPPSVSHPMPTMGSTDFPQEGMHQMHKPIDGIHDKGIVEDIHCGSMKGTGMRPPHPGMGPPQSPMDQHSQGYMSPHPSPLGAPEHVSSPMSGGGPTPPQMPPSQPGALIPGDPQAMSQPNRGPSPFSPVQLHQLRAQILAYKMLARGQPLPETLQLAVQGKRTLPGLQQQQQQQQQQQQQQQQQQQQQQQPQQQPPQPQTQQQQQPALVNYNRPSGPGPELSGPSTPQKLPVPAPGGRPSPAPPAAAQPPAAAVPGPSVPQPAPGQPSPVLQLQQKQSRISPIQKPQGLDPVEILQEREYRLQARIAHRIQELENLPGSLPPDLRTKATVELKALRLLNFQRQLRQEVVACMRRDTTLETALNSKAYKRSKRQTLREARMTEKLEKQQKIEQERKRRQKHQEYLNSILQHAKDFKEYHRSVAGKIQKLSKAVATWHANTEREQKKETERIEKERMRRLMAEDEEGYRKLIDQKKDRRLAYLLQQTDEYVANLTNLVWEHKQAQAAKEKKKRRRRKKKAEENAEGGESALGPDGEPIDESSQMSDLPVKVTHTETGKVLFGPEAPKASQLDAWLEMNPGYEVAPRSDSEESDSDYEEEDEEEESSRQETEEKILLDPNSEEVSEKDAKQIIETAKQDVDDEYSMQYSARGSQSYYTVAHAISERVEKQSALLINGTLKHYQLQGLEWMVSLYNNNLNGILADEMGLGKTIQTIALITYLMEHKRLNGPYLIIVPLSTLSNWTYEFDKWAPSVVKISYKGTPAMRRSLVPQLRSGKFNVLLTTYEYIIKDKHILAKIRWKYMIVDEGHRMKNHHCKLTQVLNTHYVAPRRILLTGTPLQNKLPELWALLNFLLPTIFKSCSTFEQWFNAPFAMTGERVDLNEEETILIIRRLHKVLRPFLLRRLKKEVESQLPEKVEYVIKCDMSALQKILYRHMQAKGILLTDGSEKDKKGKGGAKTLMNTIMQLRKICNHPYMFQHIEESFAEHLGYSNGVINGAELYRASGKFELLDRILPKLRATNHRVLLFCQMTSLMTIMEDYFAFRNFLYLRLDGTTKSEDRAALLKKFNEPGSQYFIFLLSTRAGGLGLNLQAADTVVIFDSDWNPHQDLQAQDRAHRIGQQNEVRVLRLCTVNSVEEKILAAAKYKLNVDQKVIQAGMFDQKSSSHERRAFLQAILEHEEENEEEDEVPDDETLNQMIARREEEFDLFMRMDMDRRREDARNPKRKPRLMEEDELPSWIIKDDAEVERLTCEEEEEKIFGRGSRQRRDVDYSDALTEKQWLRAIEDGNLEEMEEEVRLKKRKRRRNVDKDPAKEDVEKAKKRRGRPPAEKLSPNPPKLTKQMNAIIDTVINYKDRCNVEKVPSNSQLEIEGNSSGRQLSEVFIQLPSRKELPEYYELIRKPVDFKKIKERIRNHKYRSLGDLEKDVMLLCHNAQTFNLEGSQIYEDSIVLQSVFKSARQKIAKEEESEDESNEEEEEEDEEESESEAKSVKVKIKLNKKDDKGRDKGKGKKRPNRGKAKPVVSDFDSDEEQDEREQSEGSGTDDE
Description: As such, the development of viable antagonists or inhibitors (i.e., ATPase inhibitors) requires methods of monitoring ATPase activity.
The signal to background ratio, ATPase activity as a function of protein concentration, and the dependence of ATP activity on mononucleosome substrate were determined for the isolated full length SMARCA2 and SMARACA4 in a high throughput screening bioluminescent assay (HTS ADP-Glo™ format).

[2] = target: SMACA2 (Homo sapiens, UniProt P51531); test: PFI-3 binding to SMARCA2 (FIG. 6A)
Chain of SMACA2 (P51531 whole entry): as above

[3] = system: SMARCA4 wild-type or mutant cell lines; test: Cell growth in SMARCA4 wild-type or mutant cell lines (FIG. 6B); format: cell-based; conditions: SMARCA4-wt or mutant cell lines
From the text: FIGS. 6A and 6B are a series of graphs illustrating antiproliferative effects of bromodomain inhibitor PFI-3.

SMILES: O=C(/C=C/N1C[C@H]2C[C@@H]1CN2c1ccccn1)c1ccccc1O [PFI3]
- inhibition at 0.01 µM [1]: 5%
- binding affinity to SMARCA2 [2]: nanomolar affinity
- effect on cell growth [3]: no functional effect; also recorded: does not impact cell growth
